Laboratory results: ChEMBL document CHEMBL3526152, “Cytoprotective effect of 20S-Rg3 on benzo[a]pyrene-induced DNA damage” (Drug Metab Dispos, 2012)
Calls of active or inactive are those of the source. No cut-off for these calls is given here.

Legend:
[1] = Cytotoxicity against neonatal HDF assessed as cell viability at 10 uM after 24 hrs by MTT assay relative to control; assay type: functional; conditions: Homo sapiens, read-out: Activity
HDF [2] = experiment: Cytoprotective activity in neonatal HDF assessed as reduction of BaP-induced cell death at 10 uM after 24 hrs by MTT assay; assay type: functional; conditions: Homo sapiens
HDF [3] = experiment: Cytoprotective activity in neonatal HDF assessed as reduction of BaP-induced tail moment at 10 uM after 24 hrs by comet assay; assay type: functional; conditions: Homo sapiens
[4] = Cytoprotective activity in neonatal HDF assessed as reduction of BaP-induced DNA strand breakage by measuring tunnel positive cells at 10 uM after 24 hrs (reference value: 15.96%); assay type: functional, Homo sapiens; set-up: scale not given: the % may be the effect or the level left
HDF [5] = experiment: Cytoprotective activity in neonatal HDF assessed as reduction of BaP-induced tail moment at 10 uM after 24 hrs by comet assay in presence of PI3K/Akt inhibitor LY294002; assay type: functional; conditions: Homo sapiens
[6] = biological target: T1, Nuclear factor erythroid 2-related factor 2 (Homo sapiens) (UniProt Q16236); experiment: Induction of Nrf2 nuclear translocation in neonatal HDF at 10 uM after 2 hrs by DAPI staining-based confocal scanning laser microcopic analysis
T1 sequence (whole entry): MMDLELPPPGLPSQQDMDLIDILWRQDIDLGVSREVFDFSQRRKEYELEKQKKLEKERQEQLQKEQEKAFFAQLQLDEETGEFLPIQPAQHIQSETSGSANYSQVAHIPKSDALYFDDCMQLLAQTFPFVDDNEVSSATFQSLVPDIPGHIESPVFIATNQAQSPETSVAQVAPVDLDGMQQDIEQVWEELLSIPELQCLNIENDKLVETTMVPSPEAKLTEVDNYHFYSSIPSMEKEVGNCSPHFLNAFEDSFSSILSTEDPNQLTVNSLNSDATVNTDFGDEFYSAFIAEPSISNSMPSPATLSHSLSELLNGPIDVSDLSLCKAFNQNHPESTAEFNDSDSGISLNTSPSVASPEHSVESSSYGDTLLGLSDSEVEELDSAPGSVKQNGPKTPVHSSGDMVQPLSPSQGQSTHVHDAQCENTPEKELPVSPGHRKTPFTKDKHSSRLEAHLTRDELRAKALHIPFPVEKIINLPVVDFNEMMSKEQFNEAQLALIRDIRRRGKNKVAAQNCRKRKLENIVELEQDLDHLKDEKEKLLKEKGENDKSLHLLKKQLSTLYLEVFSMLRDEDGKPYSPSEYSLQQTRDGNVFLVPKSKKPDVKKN

[7] = biological target: T1, Nuclear factor erythroid 2-related factor 2 (Homo sapiens); experiment: Induction of Nrf2 nuclear translocation in BaP-treated neonatal HDF assessed as upregulation of NQO1 mRNA expression at 10 uM after 24 hrs by real-time PCR analysis relative to BaP-treated control
[8] = biological target: T2, Nuclear receptor subfamily 1 group I member 2 (Homo sapiens, UniProt O75469); experiment: Competitive binding affinity to PXR in human HepG2 cells at 0.01 to 50 uM by FRET analysis in presence of […]; assay type: cell-based
T2 sequence (O75469 whole entry): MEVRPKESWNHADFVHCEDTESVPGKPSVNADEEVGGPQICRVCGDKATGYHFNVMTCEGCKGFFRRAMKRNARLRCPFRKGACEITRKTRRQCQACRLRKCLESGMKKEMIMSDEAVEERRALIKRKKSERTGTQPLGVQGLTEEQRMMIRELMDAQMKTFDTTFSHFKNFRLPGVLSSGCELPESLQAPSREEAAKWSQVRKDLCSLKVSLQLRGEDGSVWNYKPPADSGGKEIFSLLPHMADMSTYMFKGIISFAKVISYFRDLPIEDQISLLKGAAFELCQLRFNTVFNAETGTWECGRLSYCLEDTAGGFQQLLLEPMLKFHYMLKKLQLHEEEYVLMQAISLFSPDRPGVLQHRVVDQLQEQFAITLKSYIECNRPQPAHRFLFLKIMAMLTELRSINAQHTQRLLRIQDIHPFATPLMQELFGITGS

[9] = biological target: T1, Nuclear factor erythroid 2-related factor 2 (Homo sapiens); experiment: Induction of Nrf2 nuclear translocation in BaP-treated neonatal HDF at 10 uM after 2 hrs by DAPI staining-based confocal scanning laser microcopic analysis in presence of PI3K/Akt inhibitor LY294002
[10] = biological target: T1, Nuclear factor erythroid 2-related factor 2 (Homo sapiens); experiment: Induction of Nrf2 nuclear translocation in BaP-treated neonatal HDF at 10 uM after 2 hrs by DAPI staining-based confocal scanning laser microcopic analysis
HepG2 [11] = experiment: Cytoprotective activity in human HepG2 cells assessed as reduction of BaP-induced tail moment at 10 uM after 24 hrs by comet assay; assay type: functional, cell-based
[12] = biological target: RAC-alpha serine/threonine-protein kinase (Homo sapiens) (UniProt P31749); experiment: Induction of AKT phosphorylation at Ser473 in neonatal HDF at 10 uM by Western blot analysis; conditions: TDE = time-dependent effect
Plasma = experiment: Plasma concentration in human at 60 mg by HPLC-MS analysis; assay type: ADME
HepG2 [13] = experiment: Cytoprotective activity in human HepG2 cells transfected with siPXR assessed as reduction of BaP-induced tail moment at 10 uM after 24 hrs by comet assay; assay type: functional, cell-based
Homo sapiens = species: Homo sapiens; experiment: Induction of ERK phosphorylation at Thr202/Try204 in neonatal HDF at 10 uM by Western blot analysis; conditions: TDE = time-dependent effect

Sequence of RAC-alpha serine/threonine-protein kinase (Homo sapiens) (P31749 whole entry): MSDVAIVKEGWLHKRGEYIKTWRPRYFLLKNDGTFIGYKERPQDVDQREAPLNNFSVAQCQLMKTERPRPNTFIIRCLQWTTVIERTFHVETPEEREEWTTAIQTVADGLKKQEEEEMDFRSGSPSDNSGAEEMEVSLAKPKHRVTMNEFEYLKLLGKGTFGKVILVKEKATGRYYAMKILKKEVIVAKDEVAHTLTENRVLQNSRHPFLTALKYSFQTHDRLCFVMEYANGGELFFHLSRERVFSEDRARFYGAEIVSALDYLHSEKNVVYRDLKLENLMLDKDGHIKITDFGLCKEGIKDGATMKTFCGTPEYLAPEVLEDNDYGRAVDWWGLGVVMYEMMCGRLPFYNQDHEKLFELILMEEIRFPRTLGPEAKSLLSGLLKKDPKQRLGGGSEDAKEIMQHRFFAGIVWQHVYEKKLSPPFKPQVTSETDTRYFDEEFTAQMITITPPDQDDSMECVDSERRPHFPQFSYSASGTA

Structure (SMILES)	viability at 10 µM [1] [%]	Activity (HDF [2])	Activity (HDF [3])	Activity [4] [%]	Activity (HDF [5])	Activity [6]	fold change (FC) [7]	Activity [8]	Activity [9]	Activity [10]	Activity (HepG2 [11])	Activity [12]	concentration (Plasma) [nM]	Activity (HepG2 [13])	Activity (Homo sapiens)
CC(C)=CCC[C@](C)(O[C@@H]1O[C@H](CO[C@@H]2O[C@H](CO)[C@@H](O)[C@H](O)[C@H]2O)[C@@H](O)[C@H](O)[C@H]1O)[C@H]1CC[C@]2(C)[C@@H]1[C@H](O)C[C@@H]1[C@@]3(C)CC[C@H](O[C@@H]4O[C@H](CO)[C@@H](O)[C@H](O)[C@H]4O[C@@H]4O[C@H](CO)[C@@H](O)[C@H](O)[C@H]4O)C(C)(C)[C@@H]3CC[C@]12C [GINSENOSIDE RB1]	91	inactive	inactive	9.77											
CC(C)=CCC[C@](C)(O)[C@H]1CC[C@]2(C)[C@@H]1[C@H](O)C[C@@H]1[C@@]3(C)CC[C@H](O[C@@H]4O[C@H](CO)[C@@H](O)[C@H](O)[C@H]4O[C@@H]4O[C@H](CO)[C@@H](O)[C@H](O)[C@H]4O)C(C)(C)[C@@H]3CC[C@]12C	124	Active	Active	3.07	inactive	Active	2	Active	inactive	Active	Active	tde	3	inactive	tde
CC(C)=CCC[C@@](C)(O)[C@H]1CC[C@]2(C)[C@@H]1[C@H](O)C[C@@H]1[C@@]3(C)CC[C@H](O[C@@H]4O[C@H](CO)[C@@H](O)[C@H](O)[C@H]4O[C@@H]4O[C@H](CO)[C@@H](O)[C@H](O)[C@H]4O)C(C)(C)[C@@H]3CC[C@]12C	105	inactive	inactive	12.76											
CC(C)=CCC[C@](C)(O[C@@H]1O[C@H](CO)[C@@H](O)[C@H](O)[C@H]1O)[C@H]1CC[C@]2(C)[C@@H]1[C@H](O)C[C@@H]1[C@@]3(C)CC[C@H](O)C(C)(C)[C@@H]3[C@@H](O[C@@H]3O[C@H](CO)[C@@H](O)[C@H](O)[C@H]3O)C[C@]12C [GINSENOSIDE RG1]	98	inactive	inactive	20.97											
